# Reference: the kinase profiling compilation of Christmann-Franck et al. (2016)
# Assays:
# Settings in all cases: compound 1.0 µM
# MAPK1 (human) = MAPK1 (human) (UniProt P28482)
# MAPK14 (human) = MAPK14 (human) (UniProt Q16539)
# KDR (human) = KDR (human) (UniProt P35968)
# ROCK1 (human) = ROCK1 (human) (UniProt Q13464)
# MAPKAPK2 (human) = MAPKAPK2 (human) (UniProt P49137)
# SRC (human) = SRC (human) (UniProt P12931)
# FGFR1 (human) = FGFR1 (human) (UniProt P11362)
# LCK (human) = LCK (human) (UniProt P06239)
# ABL1 (human) = ABL1 (human) (UniProt P00519)
# CHEK1 (human) = CHEK1 (human) (UniProt O14757)
# INSR (human) = INSR (human) (UniProt P06213)
# PAK4 (human) = PAK4 (human) (UniProt O96013)
# AURKA (human) = AURKA (human) (UniProt O14965)
# MET (human) = MET (human) (UniProt P08581)
# AKT1 (human) = AKT1 (human) (UniProt P31749)
# PDPK1 (human) = PDPK1 (human) (UniProt O15530)
# CDK2 (human) = CDK2 (human) (UniProt P24941)
# IKBKE (human) = IKBKE (human) (UniProt Q14164)
# CSNK2A1 (human) = CSNK2A1 (human) (UniProt P68400)
# PRKCB1 (human) = PRKCB1 (human) (UniProt P05771)
# NTRK1 (human) = NTRK1 (human) (UniProt P04629)
# PRKACA (human) = PRKACA (human) (UniProt P17612)
# TAOK3 (human) = TAOK3 (human) (UniProt Q9H2K8)
# GSK3B (human) = GSK3B (human) (UniProt P49841)
# MST4 (human) = MST4 (human) (UniProt Q9P289)
# IKBKB (human) = IKBKB (human) (UniProt O14920)
# EGFR (human) = EGFR (human) (UniProt P00533)
# Chain of KDR (human) (P35968 whole entry, looked up): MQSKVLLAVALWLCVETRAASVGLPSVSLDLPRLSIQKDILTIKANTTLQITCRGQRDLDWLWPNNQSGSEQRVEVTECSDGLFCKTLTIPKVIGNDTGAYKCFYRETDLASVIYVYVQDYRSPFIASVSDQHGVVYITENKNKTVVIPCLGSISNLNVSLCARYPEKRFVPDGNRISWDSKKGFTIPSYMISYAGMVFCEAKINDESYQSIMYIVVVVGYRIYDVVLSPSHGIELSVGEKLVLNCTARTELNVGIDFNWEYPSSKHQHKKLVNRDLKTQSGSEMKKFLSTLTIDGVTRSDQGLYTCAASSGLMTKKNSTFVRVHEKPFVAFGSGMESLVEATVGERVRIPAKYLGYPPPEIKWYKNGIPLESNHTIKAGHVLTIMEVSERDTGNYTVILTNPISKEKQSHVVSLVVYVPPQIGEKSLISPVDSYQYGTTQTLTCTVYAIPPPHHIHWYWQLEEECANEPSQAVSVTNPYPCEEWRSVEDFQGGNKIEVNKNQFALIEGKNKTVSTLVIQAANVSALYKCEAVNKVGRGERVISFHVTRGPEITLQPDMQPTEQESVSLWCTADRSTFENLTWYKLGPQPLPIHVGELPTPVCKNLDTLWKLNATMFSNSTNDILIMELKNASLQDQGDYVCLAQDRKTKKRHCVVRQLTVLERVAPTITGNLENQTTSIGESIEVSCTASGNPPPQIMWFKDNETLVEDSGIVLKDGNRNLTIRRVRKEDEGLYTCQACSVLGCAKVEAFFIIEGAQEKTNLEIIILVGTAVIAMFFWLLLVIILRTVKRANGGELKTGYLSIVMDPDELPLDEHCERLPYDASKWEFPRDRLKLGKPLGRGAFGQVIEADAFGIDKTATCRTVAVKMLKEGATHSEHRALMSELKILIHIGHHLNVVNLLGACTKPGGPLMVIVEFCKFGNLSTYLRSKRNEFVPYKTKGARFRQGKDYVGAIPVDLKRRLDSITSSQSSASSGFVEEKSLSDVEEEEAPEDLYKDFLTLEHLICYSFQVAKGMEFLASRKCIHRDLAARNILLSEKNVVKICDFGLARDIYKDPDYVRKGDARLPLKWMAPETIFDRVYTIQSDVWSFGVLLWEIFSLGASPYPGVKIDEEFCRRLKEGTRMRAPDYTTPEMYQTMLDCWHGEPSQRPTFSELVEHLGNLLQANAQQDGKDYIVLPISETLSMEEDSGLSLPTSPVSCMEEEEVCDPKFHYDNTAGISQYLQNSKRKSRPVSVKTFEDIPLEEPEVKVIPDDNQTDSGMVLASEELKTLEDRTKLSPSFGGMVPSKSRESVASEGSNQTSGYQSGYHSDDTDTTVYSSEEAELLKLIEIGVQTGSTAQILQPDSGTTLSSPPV
# Chain of AKT1 (human) (P31749 whole entry, looked up): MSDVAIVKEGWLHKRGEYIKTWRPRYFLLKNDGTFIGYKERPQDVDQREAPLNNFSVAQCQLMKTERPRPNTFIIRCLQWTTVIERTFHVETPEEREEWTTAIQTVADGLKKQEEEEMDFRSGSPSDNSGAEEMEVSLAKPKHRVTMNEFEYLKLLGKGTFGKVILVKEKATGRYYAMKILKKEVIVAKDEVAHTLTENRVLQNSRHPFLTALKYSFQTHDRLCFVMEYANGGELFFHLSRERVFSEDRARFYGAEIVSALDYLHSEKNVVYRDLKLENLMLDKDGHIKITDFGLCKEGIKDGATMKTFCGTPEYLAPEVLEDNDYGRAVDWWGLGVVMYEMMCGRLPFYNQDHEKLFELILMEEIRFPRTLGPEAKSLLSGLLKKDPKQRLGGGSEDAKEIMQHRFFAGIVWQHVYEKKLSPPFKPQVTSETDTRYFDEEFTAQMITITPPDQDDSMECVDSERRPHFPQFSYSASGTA
# Chain of INSR (human) (P06213 whole entry, looked up): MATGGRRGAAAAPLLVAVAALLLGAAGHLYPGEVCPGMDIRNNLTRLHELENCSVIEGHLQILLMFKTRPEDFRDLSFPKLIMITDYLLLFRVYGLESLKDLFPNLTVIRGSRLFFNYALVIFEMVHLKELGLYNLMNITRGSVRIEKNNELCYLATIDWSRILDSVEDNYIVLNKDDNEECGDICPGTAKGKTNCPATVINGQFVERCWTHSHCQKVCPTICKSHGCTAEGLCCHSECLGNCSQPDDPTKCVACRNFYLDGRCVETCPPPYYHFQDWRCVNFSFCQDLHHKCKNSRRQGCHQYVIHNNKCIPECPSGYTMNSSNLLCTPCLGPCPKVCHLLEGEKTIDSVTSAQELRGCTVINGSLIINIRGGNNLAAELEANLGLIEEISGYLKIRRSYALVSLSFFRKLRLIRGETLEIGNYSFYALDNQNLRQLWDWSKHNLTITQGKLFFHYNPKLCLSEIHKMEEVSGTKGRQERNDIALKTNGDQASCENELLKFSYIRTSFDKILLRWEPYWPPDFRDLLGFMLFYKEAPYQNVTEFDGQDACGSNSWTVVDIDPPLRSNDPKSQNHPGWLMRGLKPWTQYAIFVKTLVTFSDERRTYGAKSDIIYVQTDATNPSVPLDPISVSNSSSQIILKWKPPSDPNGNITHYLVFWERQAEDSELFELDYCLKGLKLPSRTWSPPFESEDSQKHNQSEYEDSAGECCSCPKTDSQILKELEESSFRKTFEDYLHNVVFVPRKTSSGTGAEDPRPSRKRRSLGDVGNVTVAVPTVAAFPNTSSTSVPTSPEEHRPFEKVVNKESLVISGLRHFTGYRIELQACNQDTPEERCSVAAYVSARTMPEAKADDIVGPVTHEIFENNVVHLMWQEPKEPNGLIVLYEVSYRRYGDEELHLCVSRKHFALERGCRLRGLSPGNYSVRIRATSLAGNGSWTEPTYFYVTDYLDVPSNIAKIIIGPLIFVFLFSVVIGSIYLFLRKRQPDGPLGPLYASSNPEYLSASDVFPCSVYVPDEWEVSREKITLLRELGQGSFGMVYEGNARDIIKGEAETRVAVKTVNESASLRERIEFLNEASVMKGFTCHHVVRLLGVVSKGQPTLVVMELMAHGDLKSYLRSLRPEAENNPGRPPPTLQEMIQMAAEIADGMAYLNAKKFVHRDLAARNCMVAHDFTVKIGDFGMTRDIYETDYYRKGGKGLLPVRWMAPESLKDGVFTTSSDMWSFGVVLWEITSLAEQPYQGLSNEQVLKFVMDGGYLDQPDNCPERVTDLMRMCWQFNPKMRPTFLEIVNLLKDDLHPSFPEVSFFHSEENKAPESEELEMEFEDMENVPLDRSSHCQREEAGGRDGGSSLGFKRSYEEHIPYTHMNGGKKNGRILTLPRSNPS
# Chain of PDPK1 (human) (O15530 whole entry, looked up): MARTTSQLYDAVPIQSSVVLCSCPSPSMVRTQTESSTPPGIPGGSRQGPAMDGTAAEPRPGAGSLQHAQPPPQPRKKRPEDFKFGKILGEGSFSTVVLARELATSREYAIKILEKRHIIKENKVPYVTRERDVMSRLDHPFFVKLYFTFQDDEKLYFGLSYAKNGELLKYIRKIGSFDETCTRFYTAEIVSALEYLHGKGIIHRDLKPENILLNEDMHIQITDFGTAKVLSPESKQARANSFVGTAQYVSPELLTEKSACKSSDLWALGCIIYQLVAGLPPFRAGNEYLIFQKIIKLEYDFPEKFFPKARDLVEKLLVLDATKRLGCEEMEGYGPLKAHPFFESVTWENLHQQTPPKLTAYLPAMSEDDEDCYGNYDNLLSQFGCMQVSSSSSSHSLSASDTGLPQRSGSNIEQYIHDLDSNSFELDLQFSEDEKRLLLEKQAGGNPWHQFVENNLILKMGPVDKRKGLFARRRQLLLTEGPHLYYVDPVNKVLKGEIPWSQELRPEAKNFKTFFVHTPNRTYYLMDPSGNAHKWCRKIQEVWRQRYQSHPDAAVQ
# Chain of SRC (human) (P12931 whole entry, looked up): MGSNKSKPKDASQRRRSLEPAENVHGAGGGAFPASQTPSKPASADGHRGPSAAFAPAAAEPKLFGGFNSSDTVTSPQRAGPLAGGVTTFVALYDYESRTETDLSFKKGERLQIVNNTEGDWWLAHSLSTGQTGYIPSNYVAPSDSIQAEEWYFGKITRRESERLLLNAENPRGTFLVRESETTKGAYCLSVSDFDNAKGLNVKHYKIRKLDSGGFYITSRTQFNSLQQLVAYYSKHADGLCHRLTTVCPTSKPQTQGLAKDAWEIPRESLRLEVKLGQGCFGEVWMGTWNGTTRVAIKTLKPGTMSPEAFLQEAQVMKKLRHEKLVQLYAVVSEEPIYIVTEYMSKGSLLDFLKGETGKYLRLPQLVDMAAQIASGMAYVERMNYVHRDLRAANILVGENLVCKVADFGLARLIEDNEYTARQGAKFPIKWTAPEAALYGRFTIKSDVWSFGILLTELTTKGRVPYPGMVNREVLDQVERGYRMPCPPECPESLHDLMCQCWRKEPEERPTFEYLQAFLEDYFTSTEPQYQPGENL
# Chain of CHEK1 (human) (O14757 whole entry, looked up): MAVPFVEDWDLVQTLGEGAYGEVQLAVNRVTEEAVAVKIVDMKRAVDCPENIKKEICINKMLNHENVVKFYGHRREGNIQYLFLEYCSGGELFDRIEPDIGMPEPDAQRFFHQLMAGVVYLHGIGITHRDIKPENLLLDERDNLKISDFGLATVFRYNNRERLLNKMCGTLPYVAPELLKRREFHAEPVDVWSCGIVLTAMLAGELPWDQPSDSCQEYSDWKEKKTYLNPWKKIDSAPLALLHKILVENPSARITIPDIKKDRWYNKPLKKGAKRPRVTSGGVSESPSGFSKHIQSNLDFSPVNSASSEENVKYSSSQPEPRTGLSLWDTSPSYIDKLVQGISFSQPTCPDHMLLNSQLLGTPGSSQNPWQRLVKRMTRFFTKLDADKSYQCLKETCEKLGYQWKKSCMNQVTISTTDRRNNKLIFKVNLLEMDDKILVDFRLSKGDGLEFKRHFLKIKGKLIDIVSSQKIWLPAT
Structure (SMILES),inhibition (MAPK1 (human)),inhibition (MAPK14 (human)),inhibition (KDR (human)),inhibition (ROCK1 (human)),inhibition (MAPKAPK2 (human)),inhibition (SRC (human)),inhibition (FGFR1 (human)),inhibition (ABL1 (human)),inhibition (CHEK1 (human)),inhibition (AURKA (human)),inhibition (MET (human)),inhibition (AKT1 (human)),inhibition (PDPK1 (human)),inhibition (IKBKE (human)),inhibition (CSNK2A1 (human)),inhibition (PRKCB1 (human)),inhibition (TAOK3 (human)),inhibition (GSK3B (human)),inhibition (MST4 (human)),inhibition (IKBKB (human)),further results
CS(=O)(=O)CCNCc1ccc(-c2ccc3ncnc(Nc4ccc(OCc5cccc(F)c5)c(Cl)c4)c3c2)o1,0%,0%,0%,0%,0%,0%,0%,0%,0%,0%,0%,0%,0%,0%,0%,0%,0%,0%,0%,0%,inhibition (LCK (human)): 0%; inhibition (INSR (human)): 0%; inhibition (PAK4 (human)): 0%; inhibition (CDK2 (human)): 0%; inhibition (NTRK1 (human)): 0%; inhibition (PRKACA (human)): 0%
O=C1NCCc2[nH]c(-c3ccnc(-c4ccccc4F)c3)cc21,11.7%,6.7%,11.9%,5.4%,73.7%,9.9%,0%,0%,1.8%,0%,30.4%,3.5%,0%,0%,20.5%,0%,33.8%,3.4%,10%,0%,inhibition (LCK (human)): 0%; inhibition (PAK4 (human)): 4.1%; inhibition (CDK2 (human)): 7%; inhibition (PRKACA (human)): 4.3%
CC[C@@H](CO)Nc1nc(NCc2ccccc2)c2ncn(C(C)C)c2n1,0%,5.04%,1.35%,0%,0%,4.9%,0%,8.86%,0%,0%,0%,0%,0%,0.63%,1.93%,8.46%,3.7%,0%,0%,0%,inhibition (LCK (human)): 0%; inhibition (INSR (human)): 1.28%; inhibition (PAK4 (human)): 2.92%; inhibition (EGFR (human)): 5.07%; inhibition (NTRK1 (human)): 3.46%; inhibition (PRKACA (human)): 5.58%
Cc1ccc(-c2nn(C(C)(C)C)c3ncnc(N)c23)cc1,6.6%,33.7%,70.6%,2.8%,0.2%,93.4%,50.1%,82.9%,0%,8.8%,11.3%,10.6%,0%,3.9%,1%,17.5%,17.4%,2.8%,14.8%,4.4%,inhibition (LCK (human)): 94.5%; inhibition (PAK4 (human)): 5.3%; inhibition (CDK2 (human)): 2.5%; inhibition (NTRK1 (human)): 49.8%; inhibition (PRKACA (human)): 29.2%
C#Cc1cccc(Nc2ncnc3cc(OCCOC)c(OCCOC)cc23)c1,2.3%,0%,63.6%,0%,0%,36.7%,0%,80.6%,0%,39.1%,19.4%,11.1%,0%,6.5%,0%,27.9%,0%,13.6%,18.7%,6.5%,inhibition (INSR (human)): 3.4%; inhibition (PAK4 (human)): 5.7%; inhibition (CDK2 (human)): 0%; inhibition (NTRK1 (human)): 18.5%; inhibition (PRKACA (human)): 0.1%
O=S(=O)(c1cccc2cnccc12)N1CCCNCC1,1.5%,0.9%,4%,86.1%,0%,0.9%,0%,0%,0%,4.4%,0%,16%,0%,0%,0%,5.6%,0%,0%,3.5%,0%,inhibition (LCK (human)): 0%; inhibition (INSR (human)): 1.9%; inhibition (CDK2 (human)): 0%; inhibition (NTRK1 (human)): 0.9%
CS(=O)c1ccc(-c2nc(-c3ccc(F)cc3)c(-c3ccncc3)[nH]2)cc1 (stereo not given),11.7%,,13.5%,4.88%,0%,16.6%,0%,3.15%,0%,0%,0%,0.56%,0%,0%,0%,23.6%,15.7%,52.6%,0%,0%,inhibition (LCK (human)): 7.1%; inhibition (INSR (human)): 0.995%; inhibition (PAK4 (human)): 6.86%; inhibition (CDK2 (human)): 0%; inhibition (NTRK1 (human)): 4.44%; inhibition (PRKACA (human)): 18.4%
